Assay results as given in ChEMBL document CHEMBL5649169 (ChemMedChem, 2018).

How the values were obtained:
[1] = target: Eukaryotic translation initiation factor 3 subunit I (Homo sapiens) (UniProt Q13347)
Ephrin type-A receptor 2 = Ephrin type-A receptor 2 (Homo sapiens, UniProt P29317)
[2] = target: Ceroid-lipofuscinosis neuronal protein 6 (Homo sapiens) (UniProt Q9NWW5)
[3] = target: Cytoplasmic FMR1-interacting protein 1 (Homo sapiens) (UniProt Q7L576)
[4] = target: Large ribosomal subunit protein uL3 (Homo sapiens) (UniProt P39023)
[5] = target: Glutathione S-transferase omega-1 (Homo sapiens) (UniProt P78417)
[6] = target: ADP-ribosylation factor-like protein 1 (Homo sapiens) (UniProt P40616)
[7] = target: Casein kinase I isoform delta (Homo sapiens) (UniProt P48730)
[8] = target: Citron Rho-interacting kinase (Homo sapiens) (UniProt O14578)
[9] = target: 26S proteasome regulatory subunit 10B (Homo sapiens) (UniProt P62333)
[10] = target: Proteasome subunit alpha type-7 (Homo sapiens) (UniProt O14818)
[11] = target: Profilin-1 (Homo sapiens) (UniProt P07737)
Sequence of Profilin-1 (Homo sapiens) (P07737 whole entry): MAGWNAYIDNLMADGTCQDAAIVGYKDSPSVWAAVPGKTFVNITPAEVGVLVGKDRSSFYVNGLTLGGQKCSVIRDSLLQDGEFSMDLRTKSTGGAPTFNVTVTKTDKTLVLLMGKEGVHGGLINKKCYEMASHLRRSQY

[12] = target: Protein-tyrosine kinase 6 (Homo sapiens) (UniProt Q13882)
Sequence of Protein-tyrosine kinase 6 (Homo sapiens) (Q13882 whole entry, looked up): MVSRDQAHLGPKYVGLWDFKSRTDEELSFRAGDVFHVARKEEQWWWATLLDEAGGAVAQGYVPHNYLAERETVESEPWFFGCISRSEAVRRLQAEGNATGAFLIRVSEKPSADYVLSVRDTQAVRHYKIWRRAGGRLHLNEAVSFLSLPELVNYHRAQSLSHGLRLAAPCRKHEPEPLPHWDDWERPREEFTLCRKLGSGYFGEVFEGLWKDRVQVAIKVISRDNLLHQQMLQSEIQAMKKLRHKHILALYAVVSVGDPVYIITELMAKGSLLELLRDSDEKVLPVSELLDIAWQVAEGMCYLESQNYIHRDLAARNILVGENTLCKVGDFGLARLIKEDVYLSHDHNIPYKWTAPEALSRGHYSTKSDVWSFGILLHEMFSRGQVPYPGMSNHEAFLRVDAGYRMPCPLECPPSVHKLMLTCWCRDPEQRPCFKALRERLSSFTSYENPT

[13] = target: Activin receptor type-1 (Homo sapiens) (UniProt Q04771)
[14] = target: Holocytochrome c-type synthase (Homo sapiens) (UniProt P53701)
Homo sapiens [15] = species on record: Homo sapiens
[16] = target: UV excision repair protein RAD23 homolog B (Homo sapiens) (UniProt P54727)
[17] = target: SERPINE1 mRNA-binding protein 1 (Homo sapiens) (UniProt Q8NC51)
[18] = target: DNA replication licensing factor MCM4 (Homo sapiens) (UniProt P33991)
Sequence of DNA replication licensing factor MCM4 (Homo sapiens) (P33991 whole entry): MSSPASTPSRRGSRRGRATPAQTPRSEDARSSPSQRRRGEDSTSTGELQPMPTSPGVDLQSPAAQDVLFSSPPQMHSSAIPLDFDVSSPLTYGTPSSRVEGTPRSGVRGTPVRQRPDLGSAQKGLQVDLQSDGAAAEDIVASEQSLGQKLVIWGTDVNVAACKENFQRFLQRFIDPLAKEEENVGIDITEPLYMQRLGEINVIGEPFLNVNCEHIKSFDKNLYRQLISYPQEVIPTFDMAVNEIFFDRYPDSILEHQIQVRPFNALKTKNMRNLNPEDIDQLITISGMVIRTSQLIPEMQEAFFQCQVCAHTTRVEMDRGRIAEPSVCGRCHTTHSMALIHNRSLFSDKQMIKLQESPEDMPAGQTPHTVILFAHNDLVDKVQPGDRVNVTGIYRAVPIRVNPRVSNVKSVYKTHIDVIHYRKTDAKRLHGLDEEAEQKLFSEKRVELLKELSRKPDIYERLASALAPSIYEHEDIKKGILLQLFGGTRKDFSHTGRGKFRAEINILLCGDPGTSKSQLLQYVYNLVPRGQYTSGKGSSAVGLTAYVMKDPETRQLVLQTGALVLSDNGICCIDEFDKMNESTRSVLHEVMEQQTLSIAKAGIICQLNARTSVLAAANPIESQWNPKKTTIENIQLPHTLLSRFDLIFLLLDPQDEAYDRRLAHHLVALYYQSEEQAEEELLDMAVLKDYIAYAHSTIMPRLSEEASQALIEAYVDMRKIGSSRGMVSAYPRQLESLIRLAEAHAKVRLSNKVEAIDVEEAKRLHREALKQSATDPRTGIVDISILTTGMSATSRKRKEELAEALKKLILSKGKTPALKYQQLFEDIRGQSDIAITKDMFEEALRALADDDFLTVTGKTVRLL

[19] = target: FACT complex subunit SSRP1 (Homo sapiens) (UniProt Q08945)
[20] = target: Tripeptidyl-peptidase 2 (Homo sapiens) (UniProt P29144)
[21] = target: Serine/threonine-protein kinase/endoribonuclease IRE2 (Homo sapiens) (UniProt Q76MJ5)
[22] = target: Conserved oligomeric Golgi complex subunit 7 (Homo sapiens) (UniProt P83436)
[23] = target: Ribosyldihydronicotinamide dehydrogenase [quinone] (Homo sapiens) (UniProt P16083)
[24] = target: Transcriptional repressor p66-alpha (Homo sapiens) (UniProt Q86YP4)
[25] = target: Inner centromere protein (Homo sapiens) (UniProt Q9NQS7)
[26] = target: Lamina-associated polypeptide 2, isoform alpha (Homo sapiens) (UniProt P42166)
Plectin (Homo sapiens) = Plectin (Homo sapiens) (UniProt Q15149)
[27] = target: GSK3B-interacting protein (Homo sapiens) (UniProt Q9P0R6)
Sequence of GSK3B-interacting protein (Homo sapiens) (Q9P0R6 whole entry): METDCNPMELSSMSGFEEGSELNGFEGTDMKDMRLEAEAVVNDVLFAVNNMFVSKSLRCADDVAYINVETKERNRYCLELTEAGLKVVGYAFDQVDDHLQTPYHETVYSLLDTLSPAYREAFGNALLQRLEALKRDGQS

[28] = target: T-complex protein 1 subunit theta (Homo sapiens) (UniProt P50990)
[29] = target: 116 kDa U5 small nuclear ribonucleoprotein component (Homo sapiens) (UniProt Q15029)
[30] = target: G2/mitotic-specific cyclin-B1 (Homo sapiens) (UniProt P14635)
Sequence of G2/mitotic-specific cyclin-B1 (Homo sapiens) (P14635 whole entry): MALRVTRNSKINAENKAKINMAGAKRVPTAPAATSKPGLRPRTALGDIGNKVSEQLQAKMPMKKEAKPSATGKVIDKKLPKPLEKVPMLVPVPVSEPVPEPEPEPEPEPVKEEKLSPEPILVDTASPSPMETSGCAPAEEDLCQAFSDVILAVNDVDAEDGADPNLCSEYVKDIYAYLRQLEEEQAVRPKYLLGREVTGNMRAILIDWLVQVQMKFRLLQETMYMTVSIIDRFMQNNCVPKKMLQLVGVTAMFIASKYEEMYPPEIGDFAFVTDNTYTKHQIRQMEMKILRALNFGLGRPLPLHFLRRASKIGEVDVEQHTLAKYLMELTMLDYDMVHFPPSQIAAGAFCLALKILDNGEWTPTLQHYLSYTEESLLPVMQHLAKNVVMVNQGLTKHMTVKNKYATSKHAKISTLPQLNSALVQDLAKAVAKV

[31] = target: Conserved oligomeric Golgi complex subunit 4 (Homo sapiens) (UniProt Q9H9E3)
Sequence of Conserved oligomeric Golgi complex subunit 4 (Homo sapiens) (Q9H9E3 whole entry, one chain of several): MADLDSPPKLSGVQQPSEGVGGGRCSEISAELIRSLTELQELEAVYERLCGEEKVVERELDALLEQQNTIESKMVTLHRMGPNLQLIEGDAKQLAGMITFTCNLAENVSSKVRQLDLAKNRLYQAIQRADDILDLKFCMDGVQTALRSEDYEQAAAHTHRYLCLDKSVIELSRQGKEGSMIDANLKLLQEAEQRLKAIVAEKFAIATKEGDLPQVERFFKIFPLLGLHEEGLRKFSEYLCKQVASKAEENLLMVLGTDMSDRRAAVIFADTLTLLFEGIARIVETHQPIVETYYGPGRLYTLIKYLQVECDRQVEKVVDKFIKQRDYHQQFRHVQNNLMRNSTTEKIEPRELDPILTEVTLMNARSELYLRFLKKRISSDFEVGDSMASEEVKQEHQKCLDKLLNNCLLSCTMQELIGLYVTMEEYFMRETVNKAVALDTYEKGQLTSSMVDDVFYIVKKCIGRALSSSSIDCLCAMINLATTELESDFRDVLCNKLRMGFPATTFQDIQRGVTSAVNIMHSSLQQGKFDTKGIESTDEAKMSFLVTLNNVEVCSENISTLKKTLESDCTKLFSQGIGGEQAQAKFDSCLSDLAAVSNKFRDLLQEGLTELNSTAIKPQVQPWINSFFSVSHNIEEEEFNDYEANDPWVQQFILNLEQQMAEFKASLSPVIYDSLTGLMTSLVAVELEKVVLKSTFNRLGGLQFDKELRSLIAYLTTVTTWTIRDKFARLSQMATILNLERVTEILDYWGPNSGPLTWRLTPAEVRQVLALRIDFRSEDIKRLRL

[32] = target: Cathepsin D (Homo sapiens) (UniProt P07339)
[33] = target: Serine/threonine-protein kinase PLK1 (Homo sapiens) (UniProt P53350)
[34] = target: Annexin A7 (Homo sapiens) (UniProt P20073)
Sequence of Annexin A7 (Homo sapiens) (P20073 whole entry): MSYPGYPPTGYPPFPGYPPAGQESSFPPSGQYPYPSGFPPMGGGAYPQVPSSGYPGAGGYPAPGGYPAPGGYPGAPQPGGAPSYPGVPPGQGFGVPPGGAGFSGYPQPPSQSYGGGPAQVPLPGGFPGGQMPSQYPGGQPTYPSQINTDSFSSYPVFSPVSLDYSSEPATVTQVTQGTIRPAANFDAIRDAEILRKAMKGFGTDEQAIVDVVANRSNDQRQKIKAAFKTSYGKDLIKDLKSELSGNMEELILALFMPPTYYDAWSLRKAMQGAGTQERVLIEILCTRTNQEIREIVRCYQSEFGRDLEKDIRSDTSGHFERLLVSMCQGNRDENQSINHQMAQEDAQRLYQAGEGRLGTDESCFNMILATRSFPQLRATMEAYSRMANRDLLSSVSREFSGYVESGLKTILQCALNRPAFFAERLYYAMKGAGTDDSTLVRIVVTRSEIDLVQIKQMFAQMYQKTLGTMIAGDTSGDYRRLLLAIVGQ

Homo sapiens [35] = species on record: Homo sapiens; remark: listed apart in the source
[36] = target: Transmembrane emp24 domain-containing protein 9 (Homo sapiens) (UniProt Q9BVK6)
Sequence of Transmembrane emp24 domain-containing protein 9 (Homo sapiens) (Q9BVK6 whole entry, the tested form may be a part): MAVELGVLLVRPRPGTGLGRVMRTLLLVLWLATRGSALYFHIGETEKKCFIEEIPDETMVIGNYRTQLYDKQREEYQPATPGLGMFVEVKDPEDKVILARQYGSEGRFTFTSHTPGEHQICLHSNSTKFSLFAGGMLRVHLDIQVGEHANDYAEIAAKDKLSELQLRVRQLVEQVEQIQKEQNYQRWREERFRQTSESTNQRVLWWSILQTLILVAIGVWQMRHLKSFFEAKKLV

[37] = target: Heterogeneous nuclear ribonucleoproteins A2/B1 (Homo sapiens) (UniProt P22626)
[38] = target: Eukaryotic translation initiation factor 3 subunit G (Homo sapiens) (UniProt O75821)
[39] = target: DNA replication licensing factor MCM2 (Homo sapiens) (UniProt P49736)
Sequence of DNA replication licensing factor MCM2 (Homo sapiens) (P49736 whole entry): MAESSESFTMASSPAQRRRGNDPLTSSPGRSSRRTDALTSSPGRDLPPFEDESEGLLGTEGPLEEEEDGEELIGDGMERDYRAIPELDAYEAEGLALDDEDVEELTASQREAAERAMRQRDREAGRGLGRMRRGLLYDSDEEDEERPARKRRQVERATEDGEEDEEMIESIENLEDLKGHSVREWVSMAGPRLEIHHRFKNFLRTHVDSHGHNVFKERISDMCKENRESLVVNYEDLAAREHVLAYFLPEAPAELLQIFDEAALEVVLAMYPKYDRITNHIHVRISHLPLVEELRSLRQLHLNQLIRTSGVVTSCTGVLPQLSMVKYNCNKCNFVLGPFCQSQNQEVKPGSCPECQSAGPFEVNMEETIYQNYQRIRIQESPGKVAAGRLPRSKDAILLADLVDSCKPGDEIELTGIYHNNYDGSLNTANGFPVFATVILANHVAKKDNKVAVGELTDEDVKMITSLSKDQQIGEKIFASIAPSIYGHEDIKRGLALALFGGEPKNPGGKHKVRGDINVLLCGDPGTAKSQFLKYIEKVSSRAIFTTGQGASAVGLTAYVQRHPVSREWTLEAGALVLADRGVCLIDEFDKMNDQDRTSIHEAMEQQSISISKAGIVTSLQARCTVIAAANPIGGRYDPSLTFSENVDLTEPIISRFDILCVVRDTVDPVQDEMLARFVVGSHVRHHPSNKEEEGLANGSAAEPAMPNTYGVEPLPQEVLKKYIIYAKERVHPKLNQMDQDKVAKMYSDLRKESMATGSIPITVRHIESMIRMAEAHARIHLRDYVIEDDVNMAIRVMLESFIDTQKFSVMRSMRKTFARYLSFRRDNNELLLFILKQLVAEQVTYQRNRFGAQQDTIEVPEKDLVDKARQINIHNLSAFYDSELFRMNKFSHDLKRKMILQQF

[40] = target: 26S proteasome regulatory subunit 7 (Homo sapiens) (UniProt P35998)
Sequence of 26S proteasome regulatory subunit 7 (Homo sapiens) (P35998 whole entry): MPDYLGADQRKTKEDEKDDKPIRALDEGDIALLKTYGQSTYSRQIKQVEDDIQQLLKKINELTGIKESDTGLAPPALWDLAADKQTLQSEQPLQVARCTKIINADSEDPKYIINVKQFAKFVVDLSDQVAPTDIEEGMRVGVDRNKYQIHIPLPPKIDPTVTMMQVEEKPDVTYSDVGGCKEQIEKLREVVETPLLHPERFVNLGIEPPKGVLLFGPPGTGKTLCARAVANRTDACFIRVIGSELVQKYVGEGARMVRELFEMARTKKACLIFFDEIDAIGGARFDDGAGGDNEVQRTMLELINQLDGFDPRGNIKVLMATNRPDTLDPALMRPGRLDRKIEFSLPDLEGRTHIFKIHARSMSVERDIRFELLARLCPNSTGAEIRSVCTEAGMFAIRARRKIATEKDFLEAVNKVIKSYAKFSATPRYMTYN

[41] = target: Sarcoplasmic/endoplasmic reticulum calcium ATPase 2 (Homo sapiens) (UniProt P16615)
[42] = target: 26S proteasome regulatory subunit 6A (Homo sapiens) (UniProt P17980)
[43] = target: Maternal embryonic leucine zipper kinase (Homo sapiens) (UniProt Q14680)
[44] = target: Replication factor C subunit 3 (Homo sapiens) (UniProt P40938)
[45] = target: Isocitrate dehydrogenase [NADP], mitochondrial (Homo sapiens) (UniProt P48735)
Further: assay method not described here.

Cc1ccc(C(=O)Nc2cccc(C(F)(F)F)c2)cc1Nc1nc(-c2cccnc2)nc2c1cnn2C gave an ED50 [1] of 0.108 µM, an ED50 (Ephrin type-A receptor 2) of 0.58 µM and an ED50 [2] of 12.5 µM. For the same molecule, the ED50 [3] was 0.00564 µM, the ED50 [4] was 2.64 µM and the ED50 [5] was 4.06 µM. It also gave an ED50 [6] of 0.000716 µM, an ED50 [7] of 10.4 µM and an ED50 [8] of 0.771 µM. It also gave an ED50 [9] of 43.4 µM, an ED50 [10] of 94.2 µM and an ED50 [11] of 3.95 µM. It also gave an ED50 [12] of 5.95 µM, an ED50 [13] of 0.00315 µM and an ED50 [14] of 0.0888 µM. The ED50 (Homo sapiens [15]) was 16.8 µM, the ED50 [16] was 0.00259 µM and the ED50 [17] was 0.0274 µM. For the same molecule, the ED50 [18] was 73.3 µM, the ED50 [19] was 0.00223 µM and the ED50 [20] was 53.8 µM. It also gave an ED50 [21] of 2.7 µM, an ED50 [22] of 0.018 µM and an ED50 [23] of 0.0365 µM. It also gave an ED50 [24] of 3.46 µM, an ED50 [25] of 3.42 µM and an ED50 [26] of 3.35 µM. The ED50 (Plectin (Homo sapiens)) was 11.9 µM, the ED50 [27] was 0.0291 µM and the ED50 [28] was 0.0186 µM. The ED50 [29] was 0.108 µM, the ED50 [30] was 0.205 µM and the ED50 [31] was 4.61 µM. For the same molecule, the ED50 [32] was 59.3 µM, the ED50 [33] was 1.22 µM and the ED50 [34] was 21.9 µM. It also gave an ED50 (Homo sapiens [35]) of 5.49 µM, an ED50 [36] of 67.9 µM and an ED50 [37] of 0.0823 µM. For the same molecule, the ED50 [38] was 0.00468 µM, the ED50 [39] was 3.39 µM and the ED50 [40] was 84.1 µM. The ED50 [41] was 9.67 µM, the ED50 [42] was 7.62 µM and the ED50 [43] was 0.0176 µM. For the same molecule, the ED50 [44] was 0.485 µM and the ED50 [45] was 0.00187 µM.

Cc1ccc(C(=O)Nc2cccc(C(F)(F)F)c2)cc1Nc1nc(-c2cccnc2)nc2nn(C)cc12 showed an ED50 [1] of 35.5 µM, an ED50 (Ephrin type-A receptor 2) of 6.17 µM and an ED50 [2] of 1910 µM. The ED50 [3] was 2.75 µM, the ED50 [4] was 10.4 µM and the ED50 [5] was 0.0945 µM. It also gave an ED50 [6] of 2.85 µM, an ED50 [7] of 0.0638 µM and an ED50 [8] of 15.6 µM. For the same molecule, the ED50 [9] was 0.164 µM, the ED50 [10] was 17.5 µM and the ED50 [11] was 3.98 µM. The ED50 [12] was 68.5 µM, the ED50 [13] was 34000 µM and the ED50 [14] was 0.144 µM. The ED50 (Homo sapiens [15]) was 0.00606 µM, the ED50 [16] was 14.9 µM and the ED50 [17] was 11 µM. For the same molecule, the ED50 [18] was 0.0763 µM, the ED50 [19] was 3.6 µM and the ED50 [20] was 0.487 µM. It also gave an ED50 [21] of 1.71 µM, an ED50 [22] of 3.71 µM and an ED50 [23] of 4.12 µM. For the same molecule, the ED50 [24] was 0.041 µM, the ED50 [25] was 0.229 µM and the ED50 [26] was 6.61 µM. For the same molecule, the ED50 (Plectin (Homo sapiens)) was 0.011 µM, the ED50 [27] was 1.81 µM and the ED50 [28] was 43.3 µM. For the same molecule, the ED50 [29] was 0.0593 µM, the ED50 [30] was 5.61 µM and the ED50 [31] was 0.0222 µM. The ED50 [32] was 760 µM, the ED50 [33] was 98.4 µM and the ED50 [34] was 0.0697 µM. It also gave an ED50 (Homo sapiens [35]) of 0.961 µM, an ED50 [36] of 0.00396 µM and an ED50 [37] of 0.0115 µM. For the same molecule, the ED50 [38] was 0.0104 µM, the ED50 [39] was 0.0024 µM and the ED50 [40] was 232 µM. It also gave an ED50 [41] of 0.0232 µM, an ED50 [42] of 0.00497 µM and an ED50 [43] of 6.57 µM. It also gave an ED50 [44] of 0.0505 µM and an ED50 [45] of 16.8 µM.
